Laboratory results: patent US10093611B2, “Benzocycloalkenes as antifungal agents” (Bayer Intellectual Property GmbH, priority 2010, dated 2018)

Experiments:
[1] = test system: Fusarium nivale (var. majus); assay: In vivo curative test on Fusarium nivale (var. majus) (wheat); conditions: 500 ppm of active ingredient, evaluated 5 days after inoculation
Protocol: EXAMPLE C: IN VIVO CURATIVE TEST ON FUSARIUM NIVALE (VAR. MAJUS) (WHEAT) Solvent: 49 parts by weight of N,N-dimethylacetamide Emulsifier: 1 part by weight of alkylaryl polyglycol ether To produce a suitable preparation of active compound, 1 part by weight of active compound or active compound combination is mixed with the stated amounts of solvent and emulsifier, and the concentrate is diluted with water to the desired concentration. To test for curative activity, young plants are slightly injured by using a sandblast and afterwards they are sprayed with a conidia suspension of Fusarium nivale (var. majus) and placed for 24 hours in a greenhouse under a translucent incubation cabinet at a temperature of approximately 10° C. and a relative atmospheric humidity of approximately 100% and are subsequently sprayed with the preparation of active compound at the stated rate of application. After the spray coating has been dried, the plants remain in the greenhouse under translucent incubation cloches at a temperature of approximately 10° C. and a relative atmospheric humidity of approximately 100%. The test is evaluated 5 days after the inoculation. 0% means an efficacy which corresponds to that of the untreated control, while an efficacy of 100% means that no disease is observed. Under these conditions, total protection is observed at a dose of 500 ppm of active ingredient with the following compounds from table C: […]

Septoria tritici = assay: In vivo preventive test on Septoria tritici (wheat); conditions: 500 ppm of active ingredient, evaluated 21 days after inoculation
Protocol: EXAMPLE G: IN VIVO PREVENTIVE TEST ON SEPTORIA TRITICI (WHEAT) Solvent: 49 parts by weight of N,N-dimethylacetamide Emulsifier: 1 part by weight of alkylaryl polyglycol ether To produce a suitable preparation of active compound, 1 part by weight of active compound or active compound combination is mixed with the stated amounts of solvent and emulsifier, and the concentrate is diluted with water to the desired concentration. To test for preventive activity, young plants are sprayed with the preparation of active compound or active compound combination at the stated rate of application. After the spray coating has dried on, the plants are sprayed with a spore suspension of Septoria tritici. The plants remain for 48 hours in an incubation cabinet at approximately 20° C. and a relative atmospheric humidity of approximately 100% and then 60 hours at approximately 15° C. in a translucent incubation cabinet at a relative atmospheric humidity of approximately 100%. The plants are placed in a greenhouse at a temperature of approximately 15° C. and a relative atmospheric humidity of approximately 80%. The test is evaluated 21 days after the inoculation. 0% means an efficacy which corresponds to that of the control, while an efficacy of 100% means that no disease is observed. Under these conditions, total protection is observed at a dose of 500 ppm of active ingredient with the following compounds from table G: […]

Alternaria solani = assay: In vivo preventive test on Alternaria solani (tomato); conditions: 500 ppm of active ingredient, evaluated 7 days after inoculation
Protocol: EXAMPLE A: IN VIVO PREVENTIVE TEST ON ALTERNARIA SOLANI (TOMATO) Solvent: 49 parts by weight of N,N-dimethylformamide Emulsifier: 1 part by weight of Alkylarylpolyglycolether To produce a suitable preparation of active compound, 1 part by weight of active compound is mixed with the stated amounts of solvent and emulsifier, and the concentrate is diluted with water to the desired concentration. To test for preventive activity, young plants are sprayed with the preparation of active compound at the stated rate of application. One day after this treatment, the plants are inoculated with an aqueous spore suspension of Alternaria solani. The plants remain for one day in an incubation cabinet at approximately 22° C. and a relative atmospheric humidity of 100%. Then the plants are placed in an incubation cabinet at approximately 20° C. and a relative atmospheric humidity of 96%. The test is evaluated 7 days after the inoculation. 0% means an efficacy which corresponds to that of the control while an efficacy of 100% means that no disease is observed. Under these conditions, good (at least 80%) to total protection is observed at a dose of 500 ppm of active ingredient with the following compounds from table A: […]

Puccinia triticina = assay: In vivo preventive test on Puccinia triticina (wheat); conditions: 500 ppm of active ingredient, evaluated 8 days after inoculation
Protocol: EXAMPLE E: IN VIVO PREVENTIVE TEST ON PUCCINIA TRITICINA (WHEAT)
Solvent: 49 parts by weight of N,N-dimethylacetamide
Emulsifier: 1 part by weight of alkylaryl polyglycol ether
To produce a suitable preparation of active compound, 1 part by weight of active compound or active compound combination is mixed with the stated amounts of solvent and emulsifier, and the concentrate is diluted with water to the desired concentration.
To test for preventive activity, young plants are sprayed with the preparation of active compound or active compound combination at the stated rate of application.
After the spray coating has been dried, the plants are sprayed with a spore suspension of Puccinia triticina. The plants remain for 48 hours in an incubation cabinet at approximately 20° C. and a relative atmospheric humidity of approximately 100%.
The plants are placed in the greenhouse at a temperature of approximately 20° C. and a relative atmospheric humidity of approximately 80%.
The test is evaluated 8 days after the inoculation. 0% means an efficacy which corresponds to that of the untreated control, while an efficacy of 100% means that no disease is observed.
Under these conditions, high (at least 85%) to total protection is observed at a dose of 500 ppm of active ingredient with the following compounds from table E: […]

Leptosphaeria nodorum = assay: In vivo preventive test on Leptosphaeria nodorum (wheat); conditions: 500 ppm of active ingredient, evaluated 8 days after inoculation
Protocol: EXAMPLE D: IN VIVO PREVENTIVE TEST ON LEPTOSPHAERIA NODORUM (WHEAT) Solvent: 49 parts by weight of N,N-dimethylacetamide Emulsifier: 1 part by weight of alkylaryl polyglycol ether To produce a suitable preparation of active compound, 1 part by weight of active compound or the compound combination is mixed with the stated amounts of solvent and emulsifier, and the concentrate is diluted with water to the desired concentration. To test for protective activity, young plants are sprayed with a preparation of active compound or active compound combination at the stated rate of application. After the spray coating has dried on, the plants are sprayed with a spore suspension of Leptosphaeria nodorum. The plants remain for 48 hours in an incubation cabinet at 20° C. and a relative atmospheric humidity of 100%. The plants are placed in a greenhouse at a temperature of approximately 22° C. and a relative atmospheric humidity of approximately 80%. The test is evaluated 8 days after the inoculation. 0% means an efficacy which corresponds to that of the control, while an efficacy of 100% means that no disease is observed. Under these conditions, good (at least 75%) to total protection is observed at a dose of 500 ppm of active ingredient with the following compounds from table D: Under the same conditions, excellent protection (greater than 94%) is observed at a dose of 500 ppm of active ingredient with compound 2, whereas poor protection (less than 30%) is observed with the isosteric analogue compound CMP1 claimed in WO-2009/016218 as in table D2.

SMILES	Efficacy [1] [%]	Efficacy (Septoria tritici) [%]	Efficacy (Alternaria solani) [%]	Efficacy (Puccinia triticina) [%]	Efficacy (Leptosphaeria nodorum) [%]
CCC(C1CCc2ccccc2C1)N(C(=O)c1c(C(F)F)nn(C)c1F)C1CC1 (stereo not drawn) [Example 17]	100	100	80	88	80
CCc1nn(C)c(F)c1C(=O)N(C1CC1)C(C)C1Cc2ccccc2C1 (stereo not drawn) [Example 12]	100	100	100	100	100
CC(C1Cc2ccccc2C1)N(C(=O)c1cn(C)nc1C(F)F)C1CC1 (stereo not drawn) [Example 13]	100	100	100	100	100
Cc1nn(C)c(F)c1C(=O)N(C1CC1)C(C)C1Cc2ccccc2C1 (stereo not drawn) [Example 11]	100	100	100	100	100
CC(C1CCc2ccccc2C1)N(C(=O)c1c(C(F)F)nn(C)c1F)C1CC1 (stereo not drawn) [Example 16]	100	100	95	100	86
CC(C1Cc2ccccc2C1)N(C(=O)c1c(C(F)F)nn(C)c1F)C1CC1 (stereo not drawn) [Example 14, N-cyclopropyl-3-(difluoromethyl)-N-[1-(indan-2-yl)ethyl]-5-fluoro-1-methyl-1H-pyrazole-4-carboxamide]	100	100	95	100	100
